In patent publication US11878970B2, “Allosteric chromenone inhibitors of phosphoinositide 3-kinase (PI3K) for the treatment of disease” (Petra Pharma Corporation, priority 2021, dated 2024):

Tests used:
[1] = target: T1, PI3K-α (PIK3CA) H1047R mutant, p110α/p85α complex (Homo sapiens, UniProt P42336, H1047R); test: PI3K-alpha kinase (PIK3CA) biochemical activity, ADP-Glo, H1047R mutant
T1 construct: Recombinant, catalytically active human full length PIK3KA Wild-type and H1047R mutant; 6×His (N); purchased EMD Millipore Sigma 14-792M
T1 sequence (P42336 whole entry H1047R): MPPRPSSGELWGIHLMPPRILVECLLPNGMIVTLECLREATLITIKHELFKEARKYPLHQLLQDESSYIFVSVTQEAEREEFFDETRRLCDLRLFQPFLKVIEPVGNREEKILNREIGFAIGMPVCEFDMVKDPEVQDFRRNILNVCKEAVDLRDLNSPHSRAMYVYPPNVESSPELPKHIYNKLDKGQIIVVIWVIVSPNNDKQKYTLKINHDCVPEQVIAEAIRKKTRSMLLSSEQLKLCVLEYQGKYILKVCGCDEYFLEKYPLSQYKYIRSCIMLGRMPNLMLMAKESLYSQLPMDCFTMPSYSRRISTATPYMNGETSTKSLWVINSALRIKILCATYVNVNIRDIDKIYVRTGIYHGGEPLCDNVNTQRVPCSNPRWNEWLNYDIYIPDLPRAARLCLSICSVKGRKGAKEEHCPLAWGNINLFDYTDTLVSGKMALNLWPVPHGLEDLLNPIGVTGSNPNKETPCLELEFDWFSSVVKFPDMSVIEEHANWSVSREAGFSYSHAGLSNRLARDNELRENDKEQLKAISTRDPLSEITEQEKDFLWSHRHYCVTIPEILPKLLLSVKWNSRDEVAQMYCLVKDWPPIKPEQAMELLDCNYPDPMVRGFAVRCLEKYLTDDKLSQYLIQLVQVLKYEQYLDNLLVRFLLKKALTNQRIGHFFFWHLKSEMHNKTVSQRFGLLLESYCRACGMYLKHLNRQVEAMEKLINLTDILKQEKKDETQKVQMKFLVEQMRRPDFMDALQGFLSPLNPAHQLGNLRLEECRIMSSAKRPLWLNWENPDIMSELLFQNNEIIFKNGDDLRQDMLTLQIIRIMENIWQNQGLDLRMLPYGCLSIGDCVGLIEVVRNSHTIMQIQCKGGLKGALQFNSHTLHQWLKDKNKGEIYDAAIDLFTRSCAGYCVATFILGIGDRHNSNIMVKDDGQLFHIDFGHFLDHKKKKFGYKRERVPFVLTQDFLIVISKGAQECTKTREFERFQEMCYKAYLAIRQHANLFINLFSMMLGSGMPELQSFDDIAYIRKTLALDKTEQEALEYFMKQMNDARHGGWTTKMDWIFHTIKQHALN
T1 sequence (P27986 whole entry partner): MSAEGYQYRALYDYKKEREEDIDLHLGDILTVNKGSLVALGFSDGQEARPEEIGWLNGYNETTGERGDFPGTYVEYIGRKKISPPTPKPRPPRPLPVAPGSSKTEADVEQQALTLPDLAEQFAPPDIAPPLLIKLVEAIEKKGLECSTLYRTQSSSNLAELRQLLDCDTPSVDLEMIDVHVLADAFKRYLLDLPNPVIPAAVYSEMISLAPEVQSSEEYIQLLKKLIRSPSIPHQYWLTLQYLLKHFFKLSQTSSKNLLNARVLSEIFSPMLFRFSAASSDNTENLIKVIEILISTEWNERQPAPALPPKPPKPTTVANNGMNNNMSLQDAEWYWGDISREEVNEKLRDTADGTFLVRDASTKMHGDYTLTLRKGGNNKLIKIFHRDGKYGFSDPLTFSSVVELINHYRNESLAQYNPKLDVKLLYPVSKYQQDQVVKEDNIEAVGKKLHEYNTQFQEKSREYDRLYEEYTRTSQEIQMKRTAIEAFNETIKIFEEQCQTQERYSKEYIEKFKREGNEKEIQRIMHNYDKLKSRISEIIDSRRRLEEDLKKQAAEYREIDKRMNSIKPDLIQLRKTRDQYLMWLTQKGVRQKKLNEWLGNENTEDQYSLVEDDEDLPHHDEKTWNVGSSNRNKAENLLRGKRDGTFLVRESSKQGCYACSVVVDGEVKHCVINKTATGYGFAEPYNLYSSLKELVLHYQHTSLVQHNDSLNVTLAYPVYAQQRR
Summary of the method: (§1)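 ADP formation measured by ADP-Glo luminescence after reaction at 27 °C to about 10% ATP turnover, using 20 uM ATP, 50 uM PIP2diC8 or soy PI lipid, HEPES pH 7.4 with MgCl2. Enzyme (1-5 nM WT or H1047R p110α/p85α) and compound preincubated 1 h first; 10-point 1:3 curves fitted four-parameter for IC50.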

[2] = target: T2, PI3K-α (PIK3CA) wild-type (WT), p110α/p85α complex (Homo sapiens, UniProt P42336); test: PI3K-alpha kinase (PIK3CA) biochemical activity, ADP-Glo, wild-type
T2 construct: Recombinant, catalytically active human full length PIK3KA Wild-type and H1047R mutant; 6×His (N); purchased EMD Millipore Sigma 14-602M
Summary of the method: as §1

[3] = PIP2diC8 lipid substrate (footnote 1)

IC50 ([1]; Soy PI lipid substrate) [µM] | IC50 ([2]; Soy PI lipid substrate) [µM] | IC50 [1, 3] [µM] | IC50 [2, 3] [µM] | SMILES
< 0.5 | 1 to 5 |  |  | Cc1cc(C(C)Nc2ccccc2C(=O)O)c2oc(-n3nnc4ccccc43)cc(=O)c2c1 (single isomer, unassigned) [Example 85, 2-[1-[2-(Benzotriazol-1-yl)-6-methyl-4-oxo-chromen-8-yl]ethylamino]benzoic acid]
< 0.5 | 1 to 5 |  |  | Cc1cc(C(C)Nc2ccccc2C(=O)O)c2oc(-c3ccc4ccn(C)c4n3)cc(=O)c2c1 (single isomer, unassigned) [Example 159, 2-[1-[6-Methyl-2-(1-methylpyrrolo[2,3-b]pyridin-6-yl)-4-oxo-chromen-8-yl]ethylamino]benzoic acid]
< 0.5 | 1 to 5 |  |  | Cc1cn2nc(-c3cc(=O)c4cc(C(F)(F)F)cc(C(C)Nc5ccc(Cl)nc5C(=O)O)c4o3)ccc2n1 (single isomer, unassigned) [Example 102, 6-Chloro-3-[1-[2-(2-methylimidazo[1,2-b]pyridazin-6-yl)-4-oxo-6-(trifluoromethyl)chromen-8-yl]ethylamino]pyridine-2-carboxylic acid]
1 to 5 | 1 to 5 |  |  | Cc1c(-c2ccc3nn(C)cc3c2)oc2c(C(C)Nc3ccccc3C(=O)O)cc(F)cc2c1=O (single isomer, unassigned) [Example 57, 2-[1-[6-Fluoro-3-methyl-2-(2-methylindazol-5-yl)-4-oxo-chromen-8-yl]ethylamino]benzoic acid]
< 0.5 | 1 to 5 |  |  | Cc1nc2ccc(-c3cc(=O)c4cc(C(F)(F)F)cc(C(C)Nc5ccc(Cl)nc5C(=O)O)c4o3)cc2s1 (single isomer, unassigned) [Example 167, 6-Chloro-3-[1-[2-(2-methyl-1,3-benzothiazol-6-yl)-4-oxo-6-(trifluoromethyl)chromen-8-yl]ethylamino]pyridine-2-carboxylic acid]
< 0.5 | 1 to 5 |  |  | Cc1cc(C(C)Nc2ccccc2C(=O)O)c2oc(-c3ccn4ccnc4c3)cc(=O)c2c1 (single isomer, unassigned) [Example 80, 2-[1-(2-Imidazo[1,2-a]pyridin-7-yl-6-methyl-4-oxo-chromen-8-yl)ethylamino]benzoic acid]
< 0.5 | 1 to 5 |  |  | Cc1cc(C(C)Nc2ccccc2C(=O)O)c2oc(-c3cnc4sc(C)nc4c3)cc(=O)c2c1 (single isomer, unassigned) [Example 81, 2-[1-[6-Methyl-2-(2-methylthiazolo[5,4-b]pyridin-6-yl)-4-oxo-chromen-8-yl]ethylamino]benzoic acid]
< 0.5 | 1 to 5 |  |  | Cc1cc(C(C)Nc2ccccc2C(=O)O)c2oc(-c3ccc4c(cnn4C)n3)cc(=O)c2c1 (single isomer, unassigned) [Example 164, 2-[1-[6-Methyl-2-(1-methylpyrazolo[4,3-b]pyridin-5-yl)-4-oxo-chromen-8-yl]ethylamino]benzoic acid]
< 0.5 | 0.5 to 1 |  |  | Cc1c(-c2ccc3nn(C)cc3c2)oc2c(C(C)Nc3ccccc3C(=O)O)cc(F)cc2c1=O (single isomer, unassigned) [Example 148, 2-[1-[6-Fluoro-3-methyl-2-(2-methylindazol-5-yl)-4-oxo-chromen-8-yl]ethylamino]benzoic acid]
< 0.5 | 1 to 5 |  |  | Cc1cc(C(C)Nc2ccccc2C(=O)O)c2oc(-c3cnn4cccnc34)cc(=O)c2c1 (stereo not drawn) [Example 6, 2-[1-(6-Methyl-4-oxo-2-pyrazolo[1,5-a]pyrimidin-3-yl-chromen-8-yl)ethylamino]benzoic acid]
< 0.5 | 0.5 to 1 |  |  | Cc1cc(C(C)Nc2ccc(Cl)c(F)c2C(=O)O)c2oc(-c3ccc4nn(C)cc4c3)cc(=O)c2c1 (single isomer, unassigned) [Example 184, 3-Chloro-2-fluoro-6-[1-[6-methyl-2-(2-methylindazol-5-yl)-4-oxo-chromen-8-yl]ethylamino]benzoic acid]
< 0.5 | > 10 |  |  | Cc1cc(C(C)Nc2ccc(C)nc2C(=O)O)c2oc(-c3nn(C)c4ccccc34)cc(=O)c2c1 (single isomer, unassigned) [Example 176, 6-Methyl-3-[1-[6-methyl-2-(1-methylindazol-3-yl)-4-oxo-chromen-8-yl]ethylamino]pyridine-2-carboxylic acid]
< 0.5 | 5 to 10 |  |  | Cc1cc(C(C)Nc2ccccc2C(=O)O)c2oc(-c3ccc4c(c3)ncn4C)cc(=O)c2c1 (single isomer, unassigned) [Example 166, 2-[1-[6-Methyl-2-(1-methylbenzimidazol-5-yl)-4-oxo-chromen-8-yl]ethylamino]benzoic acid]
0.5 to 1 | 1 to 5 |  |  | Cc1cc(C(C)Nc2ccccc2C(=O)O)c2oc(-c3ccn4c(-c5cccnc5)c(C)nc4c3)cc(=O)c2c1 (single isomer, unassigned) [Example 112, 2-[1-[6-Methyl-2-[2-methyl-3-(3-pyridyl)imidazo[1,2-a]pyridin-7-yl]-4-oxo-chromen-8-yl]ethylamino]benzoic acid]
< 0.5 | < 0.5 |  |  | Cc1cc(C(C)Nc2ccccc2C(=O)O)c2oc(-c3cccc4c3OCO4)cc(=O)c2c1 (single isomer, unassigned) [Example 45, 2-[1-[2-(1,3-Benzodioxol-4-yl)-6-methyl-4-oxo-chromen-8-yl]ethylamino]benzoic acid]
< 0.5 | 1 to 5 |  |  | Cc1cc(C(C)Nc2ccccc2C(=O)O)c2oc(-c3ccc4c(cnn4C)n3)c(C)c(=O)c2c1 (single isomer, unassigned) [Example 131, 2-[1-[3,6-Dimethyl-2-(1-methylpyrazolo[4,3-b]pyridin-5-yl)-4-oxo-chromen-8-yl]ethylamino]benzoic acid]
< 0.5 | < 0.5 |  |  | Cc1cc(C(C)Nc2ccc(Cl)nc2C(=O)O)c2oc(-c3ccc4nn(C)cc4c3)c(C)c(=O)c2c1 (single isomer, unassigned) [Example 181, 6-Chloro-3-[1-[3,6-dimethyl-2-(2-methylindazol-5-yl)-4-oxo-chromen-8-yl]ethylamino]pyridine-2-carboxylic acid]
< 0.5 | 1 to 5 |  |  | Cc1cc(C(C)Nc2ccccc2C(=O)O)c2oc(-c3ccc4ccnn4c3)c(C)c(=O)c2c1 (single isomer, unassigned) [Example 157, 2-[1-(3,6-Dimethyl-4-oxo-2-pyrazolo[1,5-a]pyridin-6-yl-chromen-8-yl)ethylamino]benzoic acid]
< 0.5 | 0.5 to 1 |  |  | Cc1cc(C(C)Nc2ccccc2C(=O)O)c2oc(-c3nn(C)c4ccccc34)cc(=O)c2c1 (single isomer, unassigned) [Example 23, 2-[1-[6-Methyl-2-(1-methylindazol-3-yl)-4-oxo-chromen-8-yl]ethylamino]benzoic acid]
< 0.5 | 5 to 10 |  |  | Cc1cc(C(C)Nc2ccccc2C(=O)O)c2oc(-c3nccn4cccc34)cc(=O)c2c1 (single isomer, unassigned) [Example 105, 2-[1-(6-Methyl-4-oxo-2-pyrrolo[1,2-a]pyrazin-1-yl-chromen-8-yl)ethylamino]benzoic acid]
< 0.5 | 1 to 5 |  |  | Cc1cc(C(C)Nc2ccccc2C(=O)O)c2oc(-c3c[nH]c4ccccc34)cc(=O)c2c1 (single isomer, unassigned) [Example 155, 2-[1-[2-(1H-Indol-3-yl)-6-methyl-4-oxo-chromen-8-yl]ethylamino]benzoic acid]
> 10 | > 10 |  |  | Cc1cc(C(C)Nc2ccccc2C(=O)O)c2oc(-c3ccc4cncnc4c3)cc(=O)c2c1 (single isomer, unassigned) [Example 114, 2-[1-(6-Methyl-4-oxo-2-quinazolin-7-yl-chromen-8-yl)ethylamino]benzoic acid]
< 0.5 | 1 to 5 |  |  | Cc1cc(C(C)Nc2ccccc2C(=O)O)c2oc(-c3ccc4c(cnn4C)n3)cc(=O)c2c1 (single isomer, unassigned) [Example 53, 2-[1-[6-Methyl-2-(1-methylpyrazolo[4,3-b]pyridin-5-yl)-4-oxo-chromen-8-yl]ethylamino]benzoic acid]
< 0.5 | 5 to 10 |  |  | Cc1cc(C(C)Nc2ccccc2C(=O)O)c2oc(-c3ccc4cn(C)nc4n3)cc(=O)c2c1 (single isomer, unassigned) [Example 135, 2-[1-[6-Methyl-2-(2-methylpyrazolo[3,4-b]pyridin-6-yl)-4-oxo-chromen-8-yl]ethylamino]benzoic acid]
< 0.5 | 0.5 to 1 |  |  | Cc1cn2cc(-c3oc4c(C(C)Nc5ccccc5C(=O)O)cc(F)cc4c(=O)c3C)ccc2n1 (single isomer, unassigned) [Example 124, 2-[1-[6-Fluoro-3-methyl-2-(2-methylimidazo[1,2-a]pyridin-6-yl)-4-oxo-chromen-8-yl]ethylamino]benzoic acid]
 |  | < 0.5 | < 0.5 | Cc1cc(C(C)Nc2ccccc2C(=O)O)c2oc(-c3ccc4c(c3)OCO4)cc(=O)c2c1 (single isomer, unassigned) [Example 46, 2-[1-[2-(1,3-Benzodioxol-5-yl)-6-methyl-4-oxo-chromen-8-yl]ethylamino]benzoic acid]

SMILES | IC50 ([1]; Soy PI lipid substrate) [µM] | IC50 ([2]; Soy PI lipid substrate) [µM] | IC50 [1, 3] [µM] | IC50 [2, 3] [µM]
Cc1cc(C(C)Nc2ccccc2C(=O)O)c2oc(-c3cnn4ccccc34)cc(=O)c2c1 (single isomer, unassigned) [Example 29, 2-[1-(6-Methyl-4-oxo-2-pyrazolo[1,5-a]pyridin-3-yl-chromen-8-yl)ethylamino]benzoic acid] | < 0.5 | 5 to 10 |  | 
